Data: ChEMBL document CHEMBL1155788, “Bis(sulfonamide) isosters of mycophenolic adenine dinucleotide analogues: inhibition of inosine monophosphate dehydrogenase” (Bioorg Med Chem, 2008)

Legend:
[1] = molecular target: Inosine-5'-monophosphate dehydrogenase 1 (Homo sapiens, UniProt P20839); test: Inhibition of human IMP dehydrogenase 1
[2] = molecular target: Inosine-5'-monophosphate dehydrogenase 2 (Homo sapiens, UniProt P12268); test: Inhibition of human IMP dehydrogenase 2
[3] = Inhibition of IMP dehydrogenase

Inosine-5'-monophosphate dehydrogenase 1, sequence (P20839 whole entry): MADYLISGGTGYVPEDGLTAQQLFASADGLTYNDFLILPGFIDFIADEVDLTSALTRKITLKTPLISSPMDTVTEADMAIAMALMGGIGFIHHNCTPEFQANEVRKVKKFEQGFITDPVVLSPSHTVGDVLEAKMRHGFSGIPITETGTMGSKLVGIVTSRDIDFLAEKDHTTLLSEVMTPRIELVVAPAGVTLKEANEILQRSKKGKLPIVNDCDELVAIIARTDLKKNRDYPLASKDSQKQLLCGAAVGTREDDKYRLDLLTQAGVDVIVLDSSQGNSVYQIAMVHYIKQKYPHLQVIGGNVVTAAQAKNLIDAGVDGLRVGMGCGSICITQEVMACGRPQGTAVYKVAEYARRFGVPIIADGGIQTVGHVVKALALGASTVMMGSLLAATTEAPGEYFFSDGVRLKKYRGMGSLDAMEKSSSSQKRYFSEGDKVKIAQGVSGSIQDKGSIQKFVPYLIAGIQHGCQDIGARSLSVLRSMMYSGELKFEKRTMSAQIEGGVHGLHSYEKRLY

C#Cc1nc(N)c2ncn([C@@H]3O[C@H](CNS(=O)(=O)CS(=O)(=O)NCCc4c(O)c5c(c(C)c4OC)COC5=O)[C@@H](O)[C@H]3O)c2n1
Ki [1]: 520 nM | Ki [2]: 180 nM

COc1c(C)c2c(c(O)c1CCOP(=O)(O)CP(=O)(O)OC[C@H]1O[C@@H](n3cnc4c(N)nc(-c5ccccc5)nc43)[C@H](O)[C@@H]1O)C(=O)OC2
Ki [1]: 70 nM

CCc1nc(N)c2ncn([C@@H]3O[C@H](CNS(=O)(=O)CS(=O)(=O)NCCc4c(O)c5c(c(C)c4OC)COC5=O)[C@@H](O)[C@H]3O)c2n1
Ki [1]: 820 nM | Ki [2]: 440 nM

NC(=O)c1c[se]c([C@@H]2O[C@H](COP(=O)(O)OP(=O)(O)OC[C@H]3O[C@@H](n4cnc5c(N)ncnc54)[C@H](O)[C@@H]3O)[C@@H](O)[C@H]2O)n1
Ki [3]: 40 nM

Nc1ncnc2c1ncn2[C@@H]1O[C@H](CNS(=O)(=O)CS(N)(=O)=O)[C@@H](O)[C@H]1O
Ki [1]: > 100000 nM | Ki [2]: > 100000 nM

COc1c(C)c2c(c(O)c1CCO)C(=O)OC2
Ki [1]: 15400 nM | Ki [2]: 3000 nM

NC(=O)c1csc([C@@H]2O[C@H](CNS(=O)(=O)CS(=O)(=O)NC[C@H]3O[C@@H](n4cnc5c(N)ncnc54)[C@H](O)[C@@H]3O)[C@@H](O)[C@H]2O)n1
IC50 [1]: 23600 nM

COc1c(C)c2c(c(O)c1CCNS(=O)(=O)CS(=O)(=O)NC[C@H]1O[C@@H](n3cnc4c(N)nc(-c5ccccc5)nc43)[C@H](O)[C@@H]1O)C(=O)OC2
Ki [1]: 660 nM | Ki [2]: 310 nM

Nc1ncnc2c1ncn2[C@@H]1O[C@H](CO)[C@@H](O)[C@H]1O [ADENOSINE]
Ki [1]: > 100000 nM | Ki [2]: > 100000 nM

COc1c(C)c2c(c(O)c1CCNS(=O)(=O)CS(N)(=O)=O)C(=O)OC2 [MYCOPHENOLIC BIS(SULFONAMIDE)]
Ki [1]: 18200 nM | Ki [2]: 4000 nM

NC(=O)c1csc([C@@H]2O[C@H](COP(=O)(O)OP(=O)(O)OC[C@H]3O[C@@H](n4cnc5c(N)ncnc54)[C@H](O)[C@@H]3O)[C@@H](O)[C@H]2O)n1 [TIAZOFURIN ADENINE DINUCLEOTIDE]
Ki [3]: 100 nM

NC(=O)c1csc([C@@H]2O[C@H](CO)[C@@H](O)[C@H]2O)n1 [TIAZOFURIN]
Ki [3]: 100 nM
